PubChem BioAssay AID248 (DTP/NCI, 2004)
Where “and” joins values, the source holds several entries; their conditions need not be identical. Identical values can stand only once. Inconclusive results and toxic doses are left out. No stated cut-off is given here; in the data, active means T/C of 150% or more; inactive means T/C below 125%.

System: L1210 leukemia ip in BDF1 mice, survival T/C
Test: NCI In Vivo Anticancer Drug Screen. Data for tumor model L1210 Leukemia (intraperitoneal) in B6D2F1 (BDF1) mice
Conditions: endpoint: mean survival time, higher = longer survival
Outline: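 Antitumor effect is assessed in tumor-bearing animals. Survival in the compound arm is compared with a vehicle-dosed control arm and expressed as their quotient.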

[1] = dose: 100.0 mg/kg/injection, schedule: Q04DX003 (ip), vehicle: saline with Tween-80
[2] = dose: 200.0 mg/kg/injection, schedule: Q04DX003 (ip), vehicle: saline with Tween-80
[3] = dose: 400.0 mg/kg/injection, schedule: Q04DX003 (ip), vehicle: saline with Tween-80
[4] = dose: 100.0 mg/kg/injection, schedule: Q04DX002 (ip), vehicle: Klucel (hydroxypropylcellulose) (HPC)
[5] = dose: 200.0 mg/kg/injection, schedule: Q04DX002 (ip), vehicle: Klucel (hydroxypropylcellulose) (HPC)
[6] = dose: 400.0 mg/kg/injection, schedule: Q04DX002 (ip), vehicle: Klucel (hydroxypropylcellulose) (HPC)
[7] = dose: 100.0 mg/kg/injection, schedule: Q01DX009 (ip), vehicle: saline with Tween-80
[8] = dose: 200.0 mg/kg/injection, schedule: Q01DX009 (ip), vehicle: saline with Tween-80
[9] = dose: 400.0 mg/kg/injection, schedule: Q01DX009 (ip), vehicle: saline with Tween-80
[10] = dose: 100.0 mg/kg/injection, schedule: Q01DX009 (ip), vehicle: Klucel (hydroxypropylcellulose) (HPC)
[11] = dose: 200.0 mg/kg/injection, schedule: Q01DX009 (ip), vehicle: Klucel (hydroxypropylcellulose) (HPC)

Measured: T/C

CC(=O)OC(C)(C)/C=C/C(=O)[C@](C)(O)[C@H]1[C@H](O)C[C@@]2(C)[C@@H]3CC=C4[C@@H](CC[C@H](O)C4(C)C)[C@]3(CO)C(=O)C[C@]12C
inactive: dose: 0.57 mg/kg/injection, schedule: Q01DX Z (ip), vehicle: saline 106 % of control | dose: 0.86 mg/kg/injection, schedule: Q01DX Z (ip), vehicle: saline 106 % of control | dose: 1.3 mg/kg/injection, schedule: Q01DX Z (ip), vehicle: saline 112 % of control

O=C(O)CSc1nc2ccccc2[nH]1
inactive: [1] 100 % of control | [2] 96 % of control | [3] 88 % of control

CSc1ccc(OC(=O)Nc2cccc3ccccc23)cc1
inactive: [4] 96 % of control | [5] 104 % of control | [6] 101 % of control

O=C(O)CCCOc1ccc(Cl)cc1Cl
inactive: [7] 103 % of control | [8] 98 % of control | [9] 103 % of control

CC(O)C(NCNC(=O)C1=C(O)C2(O)C(=O)C3=C(O)c4c(O)cccc4C(C)(O)C3CC2C(N(C)C)C1=O)C(=O)O (stereo not given)
inactive: dose: 1.0 mg/kg/injection, schedule: Q01DX Z (ip), vehicle: saline 110 % of control | dose: 4.0 mg/kg/injection, schedule: Q01DX Z (ip), vehicle: saline 100 % of control | dose: 14.0 mg/kg/injection, schedule: Q01DX Z (ip), vehicle: saline 91 % of control | dose: 15.0 mg/kg/injection, schedule: Q01DX Z (ip), vehicle: saline 96 % of control | dose: 28.0 mg/kg/injection, schedule: Q01DX Z (ip), vehicle: saline 102 % of control | dose: 56.0 mg/kg/injection, schedule: Q01DX Z (ip), vehicle: saline 91 % of control | dose: 60.0 mg/kg/injection, schedule: Q01DX Z (ip), vehicle: saline 98 % of control | dose: 100.0 mg/kg/injection, schedule: Q04DX003 (ip), vehicle: saline 98 % of control | dose: 120.0 mg/kg/injection, schedule: Q01DX Z (ip), vehicle: saline 93 % of control | dose: 200.0 mg/kg/injection, schedule: Q04DX003 (ip), vehicle: saline 100 % of control | dose: 224.0 mg/kg/injection, schedule: Q01DX Z (ip), vehicle: saline 91 % of control | dose: 240.0 mg/kg/injection, schedule: Q01DX Z (ip), vehicle: saline 95 % of control and 98 % of control | dose: 400.0 mg/kg/injection, schedule: Q04DX003 (ip), vehicle: saline 109 % of control | dose: 448.0 mg/kg/injection, schedule: Q01DX Z (ip), vehicle: saline 93 % of control | dose: 480.0 mg/kg/injection, schedule: Q01DX Z (ip), vehicle: saline 107 % of control

O=c1[nH]cc(CSC(=S)Nc2ccc(Cl)c(Cl)c2)c(=O)[nH]1
inactive: dose: 15.0 mg/kg/injection, schedule: Q04DX003 (ip), vehicle: saline with Tween-80 104 % of control | dose: 30.0 mg/kg/injection, schedule: Q04DX003 (ip), vehicle: saline with Tween-80 101 % of control | dose: 60.0 mg/kg/injection, schedule: Q04DX003 (ip), vehicle: saline with Tween-80 104 % of control

CC(C)(CCl)c1ccccc1
inactive: dose: 100.0 mg/kg/injection, schedule: Q04DX002 (ip), vehicle: saline with Tween-80 107 % of control | dose: 200.0 mg/kg/injection, schedule: Q04DX002 (ip), vehicle: saline with Tween-80 88 % of control | dose: 400.0 mg/kg/injection, schedule: Q04DX002 (ip), vehicle: saline with Tween-80 88 % of control

NC(=O)NC1CON(C(N)=O)C1=O (stereo not given)
inactive: dose: 100.0 mg/kg/injection, schedule: Q04DX002 (ip), vehicle: saline 94 % of control | dose: 200.0 mg/kg/injection, schedule: Q04DX002 (ip), vehicle: saline 112 % of control | dose: 400.0 mg/kg/injection, schedule: Q04DX002 (ip), vehicle: saline 94 % of control

CN=C(c1ccc(NC(=O)c2cc(N)cc(C(=O)Nc3ccc(C(=NC)N(C)C)cc3)c2)cc1)N(C)C
inactive: dose: 0.9 mg/kg/injection, schedule: Q01DX Z (ip), vehicle: carboxymethylcellulose (CMC) 94 % of control | dose: 1.87 mg/kg/injection, schedule: Q01DX Z (ip), vehicle: carboxymethylcellulose (CMC) 97 % of control | dose: 3.75 mg/kg/injection, schedule: Q01DX Z (ip), vehicle: carboxymethylcellulose (CMC) 91 % of control | dose: 7.5 mg/kg/injection, schedule: Q01DX Z (ip), vehicle: carboxymethylcellulose (CMC) 100 % of control | dose: 15.0 mg/kg/injection, schedule: Q01DX Z (ip), vehicle: carboxymethylcellulose (CMC) 100 % of control | dose: 30.0 mg/kg/injection, schedule: Q01DX Z (ip), vehicle: carboxymethylcellulose (CMC) 91 % of control

Cn1c2ccc3c(c2c(=O)c2ccoc21)C=CC(C)(C)O3
inactive: dose: 50.0 mg/kg/injection, schedule: Q01DX001 (ip), vehicle: carboxymethylcellulose (CMC) 98 % of control | dose: 100.0 mg/kg/injection, schedule: Q01DX001 (ip), vehicle: carboxymethylcellulose (CMC) 98 % of control | dose: 200.0 mg/kg/injection, schedule: Q01DX001 (ip), vehicle: carboxymethylcellulose (CMC) 91 % of control | dose: 400.0 mg/kg/injection, schedule: Q01DX001 (ip), vehicle: carboxymethylcellulose (CMC) 98 % of control

COC1CC(C)C(Cl)C(C)C1/C=C/C(=O)O (stereo not given)
inactive: dose: 50.0 mg/kg/injection, schedule: Q01DX001 (ip), vehicle: saline with Tween-80 101 % of control | dose: 100.0 mg/kg/injection, schedule: Q01DX001 (ip), vehicle: saline with Tween-80 94 % of control | dose: 200.0 mg/kg/injection, schedule: Q01DX001 (ip), vehicle: saline with Tween-80 94 % of control

O=C1c2ccccc2C2NCCCN12 (stereo not given)
inactive: dose: 100.0 mg/kg/injection, schedule: Q01DX009 (ip), vehicle: saline 102 % of control | dose: 200.0 mg/kg/injection, schedule: Q01DX009 (ip), vehicle: saline 100 % of control | dose: 400.0 mg/kg/injection, schedule: Q01DX009 (ip), vehicle: saline 96 % of control

C1=C(c2ccccc2)N(C2CCCCCCC2)C(c2ccccc2)=CN1Cc1ccccc1
inactive: [4] 103 % of control | [5] 103 % of control | [6] 100 % of control

CC1(C)OCC(CO)O1 (stereo not given)
inactive: [7] 101 % of control | [1] 105 % of control | [8] 98 % of control | [2] 97 % of control | [9] 104 % of control | [3] 100 % of control

OC1C2CC3C1C3C2c1ccccc1 (stereo not given)
inactive: [10] 102 % of control | [11] 91 % of control

O=C(Nc1cccc(O)c1)Oc1ccccc1
inactive: [7] 98 % of control | [8] 90 % of control | [9] 89 % of control

C=C(c1ccccc1)[P+](c1ccccc1)(c1ccccc1)c1ccccc1
inactive: dose: 15.0 mg/kg/injection, schedule: Q01DX001 (ip), vehicle: saline 109 % of control

O=[N+]([O-])c1ccccc1S(=O)(=O)Nc1ccccc1F
inactive: [10] 105 % of control | [11] 100 % of control | dose: 400.0 mg/kg/injection, schedule: Q01DX009 (ip), vehicle: Klucel (hydroxypropylcellulose) (HPC) 101 % of control
